# From patent publication US7579005B2, “Process for recombinant expression and purification of antimicrobial peptides using periplasmic targeting signals as precipitable hydrophobic tags” (E. I. du Pont de Nemours and Company, priority 2005, dated 2009)
# Residues, ends and D or L forms follow the SMILES beside them.
# Legend:
# [1] = Effect of pH on solubility of OmpAPerSD and PG1; assay type: physicochemical; settings: chemically synthesized samples, pH 1 to 12, 15 minutes at room temperature, supernatant by BCA total protein; FIG. 6
# Protocol: Stock solutions of chemically synthesized samples of OmpAPerSD and PG1 were made in 0.1N NaOH. The pH of each sample was adjusted by the addition of 0.2 M sodium phosphate buffer or 0.1N HCl. Finally, water was added to make the final volume of each sample the same and the samples were mixed by vortexing. After 15 minutes at room temperature all samples were centrifuged at 13,000×g in a micro-centrifuge. The supernatants were carefully separated from the insoluble precipitates and analyzed for protein by the BCA total protein method. Protein determinations were made using standard solutions of synthetic OmpAPerSD and PG1, respectively, in 0.1N NaOH. […] The difference in pH solubility of OmpAPerSD and PG1 peptides, with maximal difference at low pH, lends to their ready separation by centrifugation or filtration.
# [2] = tested on: E. coli expression host; test: Growth of E. coli host cells expressing the fusion proteins (shake flask studies); assay type: cell-based; settings: tryptophan induction
# Protocol: Single colonies of E. coli containing pLH117 or pLH119 were grown in Rich Medium overnight at 30° C. at 250 rpm. A fresh culture was started the following day using 10% of the overnight growth diluted in Induction media and grown to an OD550 of 0.8. Induction media had no tryptophan (1×M9 salts, 0.2% casamino acids, 0.5% glucose, 1 mM MgCl2, and 100 ug/ml ampicillin). To facilitate induction, tryptophan was added for a final concentration of 100 μg/ml and flasks were incubated at 37° C. with shaking at 300 rpm. Samples were taken pre-induction and at 4, 8, and 12 hr post induction. Cell pellets were collected by centrifugation and analyzed for protein production.
# Single colonies of E. coli containing pLH121 or pLH122 were grown in Rich Medium overnight at 30° C. at 250 rpm. A fresh culture was started the following day using 10% of the overnight growth in Induction medium and grown to an OD550 of 1.0 at 37°. To facilitate induction, tryptophan was added for a final concentration of 100 μg/ml. Samples were taken pre-induction and at 5 hr post induction. Cell pellets were collected by centrifugation and analyzed for protein production.
compound,measurement,setting,value
CC[C@H](C)[C@H](NC(=O)[C@H](C)NC(=O)[C@@H](NC(=O)[C@H](C)NC(=O)[C@@H](NC(=O)[C@H](CCCCN)NC(=O)[C@H](CCCCN)NC(=O)[C@@H](N)CCSC)[C@@H](C)O)[C@@H](C)CC)C(=O)N[C@@H](C)C(=O)N[C@H](C(=O)N[C@@H](C)C(=O)N[C@@H](CC(C)C)C(=O)N[C@@H](C)C(=O)NCC(=O)N[C@@H](Cc1ccccc1)C(=O)N[C@@H](C)C(=O)N[C@H](C(=O)N[C@H](C(=O)N[C@@H](C)C(=O)N[C@@H](CCC(N)=O)C(=O)N[C@@H](C)C(=O)N[C@@H](CC(=O)O)C(=O)O)C(C)C)[C@@H](C)O)C(C)C [OmpAPerSD] (H-MKKTAIAIAVALAGFATVAQAD-OH; N-terminus and C-terminus assumed),solubility over a range of pH,[1],increases with increasing pH
CC(C)C[C@H](NC(=O)[C@H](CCCCN)NC(=O)[C@H](CC(C)C)NC(=O)[C@H](CC(C)C)NC(=O)[C@H](CCCCN)NC(=O)[C@H](CCCCN)NC(=O)[C@H](CC(C)C)NC(=O)CNC(=O)[C@H](CCCCN)NC(=O)[C@H](CC(C)C)NC(=O)[C@H](CC(C)C)NC(=O)[C@H](CCCCN)NC(=O)[C@H](CCCCN)NC(=O)[C@H](CC(C)C)NC(=O)CNC(=O)[C@H](CCCCN)NC(=O)[C@@H]1CCCN1)C(=O)O [P16KGLG1] (H-PKGLKKLLKGLKKLLKL-OH; N-terminus and C-terminus assumed),solubility over a range of pH,[1],does not appear to be pH dependent
"OmpA targeting signal sequence-16KGLG1-6His: fusion protein of OmpA periplasmic targeting signal, 16KGLG1 and 6His tag, expressed from pLH119 (MKKTAIAIAVALAGFATVAQAKGLKKLLKGLKKLLKLHHHHHH; OmpA PerS-G1-6His fusion protein)",growth of cells expressing the fusion protein versus control cells containing only pLEX,[2],grew at similar rates as control cells
